ChEMBL document CHEMBL5727696, “Tetrahydroisoquinoline derived PRMT5-inhibitors” (2020)

Experiment: Revised Biochemical Assay: Full-length PRMT5 enzyme (NCBI Reference sequence NP_006100.2) was co-expressed with Hiss-MEP50 in insect cells and purified via Nickel immobilized metal affinity and gel filtration chromatography (“the enzyme”).The 6 μL reactions are run in Greiner brand black 384-well low volume assay plates. All reactions contained assay buffer (phosphate buffered saline, 0.01% (v/v) Tween-20, 0.01% (w/v) albumin from chicken egg white, 1 mM Dithiothreitol, 1 μM peptide substrate, 1 μM S-Adenosyl methionine, and 15 ng/reaction enzyme, with the enzyme being omitted from negative control reactions. Compounds were added in a volume of 100 nL from dilution series prepared in DMSO, positive and negative control reactions receiving the same volume DMSO without compound. The plates were sealed with adhesive seals and incubated for 4 hours at 37 degree Celsius. Reaction progress was measured using the Transcreener™ EPIGEN methyltransferase assay (BellBrook Labs, Madison, Wis.) as recommended by the manufacturer. To each reaction 2 μL detection mix were added, containing coupling enzymes, fluorescence polarisation tracer, and AMP antibody. Plates were incubated for 90 minutes before being read on a PerkinElmer EnVision plate reader in fluorescence polarisation mode.

**Q.** With `N#Cc1ccc(C(=O)NCCC(O)CN2CCc3ccccc3C2)cc1` (stereo unspecified) as the compound, how does the IC50 read?
**A.** 3.98 µM
